Molecules are shown by their SMILES. “And” between values parts separate entries of the source, which are not always exact repeats. Equal entries are not always repeated.

The text below walks through data of patent US9856228B2, “Peptidyl nitril compounds as dipeptidyl peptidase I inhibitors” (Prozymex A/S, priority 2013, dated 2018).

Data set [1] can be described thus: Test for metabolic stability, Human Liver Microsomes. The class given is in vitro ADME. The following applies: for Metabolic stability human microsomes t½: human liver microsomes 1.0 mg/mL; for Metabolic stability human microsomes t½ / half-life at 5 μM: 5 μM test compound, NADPH; for half-life at 5 μM: human, liver microsomes, pH 7.4, human liver microsomes 1.0 mg/mL, read-out: Metabolic stability human microsomes t½. As to the method: (§1) The test for metabolic stability was performed by Absorption System, Exton, Pa. 19341, USA.
(§2) The test compound (DPPI inhibitor) was dissolved in 100% DMSO at a concentration of 10 mM. The reaction mixture, consisted of Mouse or Human Liver Microsomes (1.0 mg/mL), 1 mM NADPH, 100 nnM Potassium Phosphate, pH 7.4, 10 mM Magnesium Chloride and test compound at a concentration of 5 μM.
(§3) An aliquot of the reaction mixture (without cofactors) was incubated in a shaking water bath at 37° C. for 3 minutes. Another aliquot of the reaction mixture was prepared as the negative control. The test compound was added into both the reaction mixture and the negative control at a final concentration of 5 μM.
(§4) The reaction was initiated by the addition of NADPH to 1 mM (not into the negative controls) and then incubated in a shaking water bath at 37° C. Aliquots (100 μL) were withdrawn at 0, 10, 20, 30, and 60 minutes or at 0, 15, 30 and 60 minutes and combined with 900 μL of ice-cold 50/50 acetonitrile/dH2O to terminate the reaction. A control (testosterone) was run simultaneously with the test compound in a separate reaction. LC/MS/MS is used to determine the peak area response ratio (peak area corresponding to test compound or control divided by that of an analytical internal standard). The natural log of the percent remaining was plotted versus time. A linear fit was used to determine the rate constant. The fit was truncated if the percent remaining of test compound was less than 10%. The elimination half-lives associated with the disappearance of the test and control compounds were determined to compare their relative metabolic stability.

The nature of data set [2]: Test for metabolic stability, Mouse Liver Microsomes. Conditions: for Metabolic stability mouse microsomes t½: mouse liver microsomes 1.0 mg/mL; for Metabolic stability mouse microsomes t½ / half-life at 5 μM: 5 μM test compound, NADPH; for half-life at 5 μM: mouse, liver microsomes, pH 7.4, mouse liver microsomes 1.0 mg/mL, read-out: Metabolic stability mouse microsomes t½. The class given is in vitro ADME. As to the method:
as §1, §2, §3, §4
On the technique in general: Microsomes from liver hold many membrane-bound enzymes, among them those of drug oxidation.

A further data set addresses T1, CYP2C9 (Homo sapiens, UniProt P11712).
T1 construct: incubated with pooled Human Liver Microsomes (0.25 mg protein/mL); from tissue; host or cells: pooled human liver microsomes
In words: Test for inhibition of CYP2C9 in Human Liver Microsomes. The following applies: pooled Human Liver Microsomes, 6 μM diclofenac; read-out: CYP inhibition IC50 CYP2C9. Type of data set: in vitro ADME. As to the method: (§5) The test for inhibition of CYP2C9, CYP2D6 and CYP3A4 enzymes was performed by Absorption System, Exton, Pa. 19341, USA according to the procedure described below.
(§6) The IC50 values of Example 1 of WO2012119941 (PZ1024) and the compound of the present invention (PZ1025) for CYP enzymes (CYP2C9, CYP2D6, and CYP3A4) in Human Liver Microsomes were measured. […] After a period of incubation, the samples were treated by the addition of protein precipitation solvent and centrifuged. CYP enzyme activities were measured by determining the formation of the CYP probe metabolites by LC-MS/MS, and the IC50 (the concentration of an inhibitor causing 50% inhibition) was estimated using GraphPad Prism® software by fitting the experimental data (percent of control activity remaining at each concentration of test compound) to a sigmoidal model and non-linear regression analysis.
(§7) The CYP enzyme activities in the Human Liver Microsomes were verified in parallel by determining the inhibition of positive inhibitors on the CYP enzyme activities (sulfaphenazole, quinidine and ketoconazole for CYP2C9, CYP2D6, and CYP3A4, respectively).

In a further data set the target is T2, CYP2D6 (Homo sapiens, UniProt P10635).
T2 construct: incubated with pooled Human Liver Microsomes (0.25 mg protein/mL); from tissue; host or cells: pooled human liver microsomes
T2 sequence (P10635 whole entry): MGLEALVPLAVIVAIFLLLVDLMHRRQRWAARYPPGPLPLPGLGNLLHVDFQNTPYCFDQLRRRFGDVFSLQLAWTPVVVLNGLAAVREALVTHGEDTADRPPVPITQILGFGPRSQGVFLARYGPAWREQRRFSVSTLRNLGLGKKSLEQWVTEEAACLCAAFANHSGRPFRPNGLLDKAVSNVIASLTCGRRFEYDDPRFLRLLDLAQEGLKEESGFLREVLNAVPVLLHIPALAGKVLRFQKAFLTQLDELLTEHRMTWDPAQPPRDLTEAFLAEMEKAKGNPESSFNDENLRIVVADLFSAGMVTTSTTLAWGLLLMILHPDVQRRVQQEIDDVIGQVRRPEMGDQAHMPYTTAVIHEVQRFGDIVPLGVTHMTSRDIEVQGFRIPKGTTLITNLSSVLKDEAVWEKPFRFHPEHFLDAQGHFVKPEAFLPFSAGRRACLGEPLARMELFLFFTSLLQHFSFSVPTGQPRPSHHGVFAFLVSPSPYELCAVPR
Nature of the data set: Test for inhibition of CYP2D6 in Human Liver Microsomes. Type of data set: in vitro ADME. Conditions: pooled Human Liver Microsomes, 7 μM bufuralol; read-out: CYP inhibition IC50 CYP2D6. As to the method: as §5, §6, §7

A further data set addresses T3, CYP3A4 (Homo sapiens, UniProt P08684).
T3 construct: incubated with pooled Human Liver Microsomes (0.25 mg protein/mL); from tissue; host or cells: pooled human liver microsomes
In words: Test for inhibition of CYP3A4 in Human Liver Microsomes. Type of data set: in vitro ADME. The following applies: pooled Human Liver Microsomes, 75 μM testosterone; read-out: CYP inhibition IC50 CYP3A4. As to the method:
as §5, §6, §7

Data set [3] has as its system human lymphoblastoid TK6 cells. Nature of the data set: Test for cytotoxicity (relative cell proliferation, optical absorbance). The class given is cell-based. Conditions: for highest concentration that does not cross the significance threshold: TK6 strains GenM-T01 and GenM-C01, 24 hour and 48 hour time points, threshold 80% relative cell density. As to the method:
The test for cytotoxicity was performed by Cyprotex Discovery Ltd. 15 Beech lane, Macclesfield, Cheshire, SK10 2DR, UK.
Two strains of cultured human lymphoblastoid TK6 cells was used, GenM-T01 and GenM-C01. A dilution series of each test compound was generated in a 96-well, black microplate with an optically clear base. The plates was analysed at 24 hour and 48 hour time points using a microplate reader, that provides measurements of light absorbance for cells and solutions in the microplates wells.
Cytotoxicity was assessed using relative cell proliferation, quantified using optical absorbance. Cytotoxic compounds are those which reduce relative cell density below a significance threshold set at 80% compared to the vehicle-treated control, at one or more test concentrations.

Data set [4] has as its target T4, DPPI (Homo sapiens, UniProt P53634). Nature of the data set: Human DPPI inhibition assay (Gly-Phe-paranitroanilide substrate). Type of data set: biochemical. The arrangement: purchased UNIZYME Laboratories A/S. Conditions: Table 1 potency; assay not given. As to the method: Using this assay, the IC50 value of the compound of the invention may be determined using Gly-Phe-paranitroanilide as a DPPI specific substrate.
Assay buffer: 20 mM citric acid (2.1 g citric acid), 150 mM NaCl (4.4 g NaCl) and 2 mM EDTA (370 mg EDTA) was dissolved in 500 mL H2O, and pH was adjusted to 4.5 with HCl.
Substrate: Gly-Phe-paranitroanilide (Sigma Aldrich; Cat. No G0142) was used as the substrate for determination of IC50 values. Km was 2.2 mM. The substrate was solubilized in dinnethylformamid to give a 0.2-0.5 M stock solution, which was then further diluted with stirring in assay buffer to a final concentration of 1 mM.
DPPI: Human DPPI (obtained from UNIZYME Laboratories A/S, DK-2970 Høsholm, Denmark) was stored at −20° C. in a buffer containing 2.5 mM Na-phosphate, 150 mM NaCl, 2 mM cysteamine, 50% glycerol, pH 7.0 at a concentration of 1-2 mg/mL (5-10 μM). This stock solution was diluted 500-1000 times in assay buffer to a concentration of 10-20 nM.
Assay conditions: The assay was performed in 96-well plates. Diluted enzyme (25 μL) was added to the well, followed by 25 μL of test substance in varying concentrations, and the solution was mixed. […] The absorption was measured at 405 nm at 37° C. for every 90 seconds for 12 minutes or every 20 seconds for 4 minutes. […] IC50 was determined using a 4-parameter logistic equation in a non-linear curve fitting routine.

Data set [5] concerns the target T4, DPPI. In words: Cell based DPPI inhibition assay (neutrophil elastase activity in U937 cells). The following applies: 24 hours, elastase activity readout. The arrangement: endogenous in cells; host or cells: U937 cells. As to the method: Using the cell based assay described below, the biological activity of the compounds of the invention or other DPPI inhibitors may be determined.
Neutrophil elastase enzymatic activities in U937 cells grown in the presence of DPPI inhibitors were measured by methods modified from Méthot N; Rubin J; Guay D; Beaulieu C; Ethier D; Reddy T J; Riendeau D and Percival M D (2007) 3 Biol Chem, 282, 20836-20846. U937 cells were propagated in culture media (RPMI 1640, supplemented with 10% FBS, 10 mM Hepes, 1 mM sodium pyrovate, 100 units/ml of each of penicillin and streptomycin). Cells were seeded in 12-well plates at 0.4×10^6 cells/ml in volumes of 1.5 ml per well in the presence of no or increasing concentrations of DPPI inhibitor. 12 points in duplicate in the range of 0.1 nM to 50 μM inhibitor were tested. After 24 hours cells were harvested, washed with PBS and lysed in 20 mM Tris-HCl, pH 7.5, 100 mM NaCl, 0.2% Triton X-100. […]
The activity of neutrophil elastase was determined by measuring the enzymatic release of chromogenic p-nitroaniline from the substrate MetOSuc-Ala-Ala-Pro-Val-pNA, which leads to an increase in absorbance at 405 nm. Assays were carried out in 96-well plates in a final volume of 200 μL at 37° C., and absorbance was measured 8 times during 21-35 minutes using a plate reader. IC50 was determined using a 4-parameter logistic equation in a non-linear curve fitting routine.

T4 sequence (P53634 231-394 limits assumed): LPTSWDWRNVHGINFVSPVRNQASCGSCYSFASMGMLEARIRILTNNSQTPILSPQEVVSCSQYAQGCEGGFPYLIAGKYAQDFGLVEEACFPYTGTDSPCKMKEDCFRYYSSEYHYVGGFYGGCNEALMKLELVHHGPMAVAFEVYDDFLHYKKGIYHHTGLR
T4 sequence (P53634 25-134 limits assumed): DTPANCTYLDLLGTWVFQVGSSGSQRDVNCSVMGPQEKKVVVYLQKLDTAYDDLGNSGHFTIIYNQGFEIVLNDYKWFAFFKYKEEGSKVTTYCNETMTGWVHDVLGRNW
T4 sequence (P53634 395-463 limits assumed): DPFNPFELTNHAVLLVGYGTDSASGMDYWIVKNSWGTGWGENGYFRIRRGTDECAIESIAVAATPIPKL
T1 sequence (P11712 whole entry): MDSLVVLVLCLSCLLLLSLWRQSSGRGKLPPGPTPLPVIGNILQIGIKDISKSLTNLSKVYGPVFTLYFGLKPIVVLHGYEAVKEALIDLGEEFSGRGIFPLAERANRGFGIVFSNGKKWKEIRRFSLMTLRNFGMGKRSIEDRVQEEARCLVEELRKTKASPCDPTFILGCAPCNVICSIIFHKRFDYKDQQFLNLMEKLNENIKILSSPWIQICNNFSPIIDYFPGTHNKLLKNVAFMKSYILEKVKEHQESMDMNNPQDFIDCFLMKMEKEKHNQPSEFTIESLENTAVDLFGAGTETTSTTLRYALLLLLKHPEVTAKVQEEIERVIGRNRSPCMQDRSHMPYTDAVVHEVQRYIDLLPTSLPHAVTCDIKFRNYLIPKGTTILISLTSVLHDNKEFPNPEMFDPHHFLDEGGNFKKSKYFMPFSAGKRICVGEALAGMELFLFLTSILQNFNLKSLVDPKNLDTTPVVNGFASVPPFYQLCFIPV
T3 sequence (P08684 whole entry): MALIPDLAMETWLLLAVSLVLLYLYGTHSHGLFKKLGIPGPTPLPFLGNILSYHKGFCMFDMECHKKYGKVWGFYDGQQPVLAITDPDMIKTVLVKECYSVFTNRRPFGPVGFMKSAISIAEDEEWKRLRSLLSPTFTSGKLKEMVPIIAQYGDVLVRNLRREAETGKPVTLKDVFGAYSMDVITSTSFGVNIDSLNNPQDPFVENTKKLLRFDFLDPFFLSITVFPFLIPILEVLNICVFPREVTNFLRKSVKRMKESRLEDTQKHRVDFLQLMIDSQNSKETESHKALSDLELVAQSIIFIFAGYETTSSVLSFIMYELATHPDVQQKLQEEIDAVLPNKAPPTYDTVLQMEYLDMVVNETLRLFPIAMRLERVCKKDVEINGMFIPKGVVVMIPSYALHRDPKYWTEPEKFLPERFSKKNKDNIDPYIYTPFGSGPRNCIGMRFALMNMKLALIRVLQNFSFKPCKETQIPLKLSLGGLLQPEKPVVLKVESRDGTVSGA

`CN1CCN(Cc2ccc(-c3ccc(C[C@@H](C#N)NC(=O)C4(N)CCCCC4)cc3)cc2)CC1` [PZ1024, reference compound]: the “Metabolic stability human microsomes t½” value in data set [1] is on record as “t½ ≈ 55 min”. Also, the half-life at 5 μM in data set [1] is about 55 min; in data set [2], about 10 min. In addition, the “Metabolic stability mouse microsomes t½” value in data set [2] is “t½ ≈ 10 min”. Further, the IC50 (as a rule, the concentration needed to halve the response being measured) on CYP2C9 was over 100 µM; on CYP2D6 it was 18 µM; on CYP3A4, over 100 µM; against DPPI [4] it was 0.037 µM. Also, the “highest concentration that does not cross the significance threshold” value in data set [3] turned out to be 15 µM.

On to `CN1CCN(Cc2ccc(-c3ccc(C[C@@H](C#N)NC(=O)C4(N)CCOCC4)cc3)cc2)CC1` [PZ1025, (S)-4-amino-N-(1-cyano-2-(4′-((4-methylpiperazin-1-yl)methyl)biphenyl-4-yl)ethyl)tetrahydro-2H-pyran-4-carboxamide], for which, in data set [1] (PZ1025 versus PZ1024), the “half-life in human liver microsomes, times higher than PZ1024” value is reported as “more than 5 times”. Also, the “half-life in human liver microsomes, times higher than PZ1032” value in data set [1] (PZ1025 versus PZ1032) is listed as “more than 5 times”. Further, in data set [1], the “Metabolic stability human microsomes t½” value is given as “t½ > 300 min”. Moreover, the half-life at 5 μM in data set [1] was over 300 min; in data set [2], about 65 min. Moreover, in data set [2] (PZ1025 versus PZ1024), the “half-life in mouse liver microsomes, times higher than PZ1024” value is given as “more than 6 times”. In data set [2] (PZ1025 versus PZ1032), the “half-life in mouse liver microsomes, times higher than PZ1032” value is recorded as “about 2 times”. Moreover, the “Metabolic stability mouse microsomes t½” value in data set [2] is “t½ ≈ 65 min”. The IC50 on CYP2C9 was over 100 µM; on CYP2D6 it was over 100 µM; on CYP3A4, over 100 µM; on DPPI [4], 0.034 µM; against DPPI [5], 0.011 µM and ~0.011 µM. Further, the “times less toxic than PZ1024” value in data set [3] (PZ1025 versus PZ1024, TK6 cytotoxicity) is given as “at least 5 times”. Besides, in data set [3], the “highest concentration that does not cross the significance threshold” value is 150 µM.

In the case of `CN1CCN(S(=O)(=O)c2ccc(-c3ccc(C[C@@H](C#N)NC(=O)C4(N)CCOCC4)cc3)cc2)CC1` [PZ1032, reference compound], in data set [1], the “Metabolic stability human microsomes t½” value is listed as “t½ ≈ 50 min” and the half-life at 5 μM amounted to 50 min. Moreover, in data set [2], the “Metabolic stability mouse microsomes t½” value is recorded as “t½ ≈ 35 min” and the half-life at 5 μM was 35 min. At DPPI [5], this compound registered an IC50 of about 0.011 µM.
